Reference: patent publication US20150258192A1, “COMPOSITIONS AND METHODS FOR PREVENTING OR TREATING CHRONIC LUNG ALLOGRAFT DYSFUNCTION (CLAD) AND IDIOPATHIC PULMONARY FIBROSIS (IPF)” (priority 2014, published 2015)
No end group written: not given here.

Columns and labels:
Abl(H396P)(h) = Abl(H396P)(h) (Homo sapiens, UniProt P00519, H396P); assay: Kinase Profiling Assay; format: biochemical; settings: peptide 100 μM
Method in brief: (§1)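 In this 266-kinase specificity panel, every measurement was duplicated. Transfer of labeled phosphate from ATP to a cationic substrate was quantified after the substrate adhered to an anionic filter membrane and was scintillation-counted, then related to a full-activity control.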

CK1γ3(h) = CK1γ3(h) (Homo sapiens, UniProt Q9Y6M4); assay: Kinase Profiling Assay; format: biochemical; settings: peptide 100 μM
Method in brief: as §1

PAK3(h) = PAK3(h) (Homo sapiens, UniProt O75914); assay: Kinase Profiling Assay; format: biochemical; settings: peptide 100 μM
Method in brief: as §1

Aurora-A(h) = biological target: T1, Aurora-A(h) (Homo sapiens, UniProt O14965); assay: Kinase Profiling Assay; format: biochemical; settings: peptide 100 μM
T1 sequence (O14965 1-403): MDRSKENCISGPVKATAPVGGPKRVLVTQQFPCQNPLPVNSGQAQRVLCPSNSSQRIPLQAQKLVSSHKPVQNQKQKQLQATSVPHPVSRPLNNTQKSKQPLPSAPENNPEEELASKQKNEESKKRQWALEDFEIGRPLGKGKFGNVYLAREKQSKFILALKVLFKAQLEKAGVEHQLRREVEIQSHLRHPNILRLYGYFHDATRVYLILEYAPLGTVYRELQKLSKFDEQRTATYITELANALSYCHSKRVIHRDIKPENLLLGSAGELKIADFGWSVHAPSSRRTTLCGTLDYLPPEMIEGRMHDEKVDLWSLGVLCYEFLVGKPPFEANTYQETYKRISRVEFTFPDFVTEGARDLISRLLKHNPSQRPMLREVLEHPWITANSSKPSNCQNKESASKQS
Method in brief: as §1

[1] = tested on: human fetal lung fibroblasts (IMR-90); assay: TGF-β-mediated fibronectin expression; format: cell-based; settings: pre-treated 1 h, TGF-β1 (2 ng/ml) 72 h, conditioned media
Procedure: Fibronection was measured as secreted fragments in the conditioned media. Equal amounts (14 μg) of total proteins from the conditioned media were loaded in each lane.

[2] = tested on: bleomycin-induced lung fibrosis in C57BL/6 mice; assay: Bleomycin mouse model of pulmonary fibrosis (IPF prevention model); format: in vivo; settings: for collagen levels in the lung (Masson's blue trichrome), dose-response: 25, 50 or 75 μg/kg daily IP, day 7-21; for collagen accumulation in the lungs (Masson's Trichrome staining) / development of fibrotic loci formation (H&E staining): daily day 7-21 post bleomycin; for total collagen deposition (from hydroxyproline) vs bleomycin control: post-inflammatory/pre-fibrotic stage
Procedure: A mouse model of pulmonary fibrosis was generated by administering 0.025 U of bleomycin/PBS intratracheally to C57BL/6 mice. […] At 21 day post bleomycin delivery (for prevention model) or 28 post bleomycin delivery (for treatment model), groups of mice were sacrificed with a sodium pentobarbital injection (120 mg/kg) and the chest cavity was opened. The right mainstem bronchus was ligated and the right lung was removed. The trachea was cannulated and the left lung was perfused with 4% formaldehyde at 21 cm H2O pressure. The tissue blocks then were embedded in paraffin, and […] sections were prepared for staining. Sections from each animal were stained with hematoxylin and eosin (H&E) to visualize cells or with Masson's Trichrome staining to highlight collagen deposition. […] Stained sections were mounted onto a labeled glass slide with organic mounting medium.
Briefly, fibrotic loci in the lungs of the mice were induced by delivering intratracheally about 0.025 U of bleomycin (dissolved in PBS) to C57BL/6 mice. […] Briefly, mice were sacrificed with a sodium pentobarbital injection (120 mg/kg) and the chest cavity was opened. The right mainstem bronchus was ligated and the right lung was removed. The trachea was cannulated and the left lung was perfused with 4% formaldehyde at 21 cm H2O pressure. The tissue blocks then were embedded in paraffin, and […] sections were prepared, and stained with hematoxylin and eosin (H&E; for pathological examination) or Masson's Trichrome (for collagen staining)
Next, total collagen levels in the lungs of the bleomycin-injured mice (FIG. 12) were analyzed quantitatively by computing a constant conversion factor (7.5) for collagen from hydroxyproline concentrations (Neuman R. and Logan M, J Biol Chem., 186(2):549-56, 1950, incorporated by reference).
Next, the effect of increasing doses of MK2 peptide inhibitors on collagen deposition was examined in vivo using the bleomycin mouse model of idiopathic pulmonary fibrosis (prevention model). Briefly, C57-BL/6 mice were subjected to bleomycin injury at day 0.

[3] = tested on: primary lung fibroblasts from patients with IPF; assay: Matrigel invasion assay, human IPF fibroblasts; format: cell-based; settings: MK2i treatment
Procedure: Fibroblasts are critical effector cells in mediating tissue remodeling. […] We have developed a novel model of progressive lung fibrosis based on a cancer metastasis model. […] We hypothesized that fibrotic fibroblasts acquire an invasive phenotype that is essential for progressive fibrogenesis and that CD44 has a critical role in regulating the process. We utilized an assay system in which fibroblasts are evaluated for their ability to spontaneously invade Matrigel, a composite matrix with basement membrane constituents. This assay has been used to analyze the metastatic potential of cancer cells (40).
We have hypothesized that the essential feature of IPF is the development of an invasive fibroblast phenotype that has developed a gene program that facilitates matrix invasion. To determine if the data obtained from the ASMA-HAS2 transgenic mouse model of severe, progressive and destructive fibrosis is relevant to human lung fibrosis, we isolated primary lung fibroblasts from patients with IPF and analyzed their invasive capacity. We found a striking increase in the invasive capacity of IPF fibroblasts compared to fibroblasts isolated from normal lung tissue (FIG. 34).

[4] = tested on: normal human fetal lung fibroblasts (IMR-90); assay: TGF-β-induced myofibroblast activation (α-SMA immunoblot); format: cell-based; settings: pre-treated 1 h, TGF-β1 (2 ng/ml) 48 h
Description: Cell lysates were immunoblotted against antibodies for α-SMA (a marker for myofibroblast activation) and GAPDH (loading control).

[5] = tested on: phospho-Thr^334-MAPKAPK2 (activated form of MK2); assay: Anti-phospho-Thr334-MAPKAPK2 staining of lung sections, bleomycin treatment model; format: in vivo, mouse; settings: day 14-28
Description: C57-BL/6 mice were subjected to bleomycin injury at day 0. […] Original magnifications: 20×.
Briefly, C57-BL/6 mice were subjected to bleomycin injury at day 0. […] Formalin-fixed lung tissue sections were immunostained against phospho-Thr^334 MK2. Control staining was with biotinylated secondary IgG antibody. Streptavidin-conjugated horseradish peroxidase was used with 3,3′-diaminobenzidene as substrate and nuclei were counterstained with hematoxylin.

Sequence of CK1γ3(h) (Q9Y6M4 whole entry): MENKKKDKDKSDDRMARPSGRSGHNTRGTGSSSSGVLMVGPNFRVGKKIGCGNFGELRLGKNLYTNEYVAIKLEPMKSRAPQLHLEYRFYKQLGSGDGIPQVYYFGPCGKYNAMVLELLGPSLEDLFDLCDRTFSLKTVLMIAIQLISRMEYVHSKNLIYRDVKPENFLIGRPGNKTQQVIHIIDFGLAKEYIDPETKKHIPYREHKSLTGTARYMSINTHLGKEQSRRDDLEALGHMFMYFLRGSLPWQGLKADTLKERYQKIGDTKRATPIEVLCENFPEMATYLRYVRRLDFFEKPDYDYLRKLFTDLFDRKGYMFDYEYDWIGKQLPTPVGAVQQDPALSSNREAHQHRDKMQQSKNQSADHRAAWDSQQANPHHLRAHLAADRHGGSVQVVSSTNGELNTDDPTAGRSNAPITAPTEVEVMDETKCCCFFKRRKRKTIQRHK
Sequence of PAK3(h) (O75914 whole entry): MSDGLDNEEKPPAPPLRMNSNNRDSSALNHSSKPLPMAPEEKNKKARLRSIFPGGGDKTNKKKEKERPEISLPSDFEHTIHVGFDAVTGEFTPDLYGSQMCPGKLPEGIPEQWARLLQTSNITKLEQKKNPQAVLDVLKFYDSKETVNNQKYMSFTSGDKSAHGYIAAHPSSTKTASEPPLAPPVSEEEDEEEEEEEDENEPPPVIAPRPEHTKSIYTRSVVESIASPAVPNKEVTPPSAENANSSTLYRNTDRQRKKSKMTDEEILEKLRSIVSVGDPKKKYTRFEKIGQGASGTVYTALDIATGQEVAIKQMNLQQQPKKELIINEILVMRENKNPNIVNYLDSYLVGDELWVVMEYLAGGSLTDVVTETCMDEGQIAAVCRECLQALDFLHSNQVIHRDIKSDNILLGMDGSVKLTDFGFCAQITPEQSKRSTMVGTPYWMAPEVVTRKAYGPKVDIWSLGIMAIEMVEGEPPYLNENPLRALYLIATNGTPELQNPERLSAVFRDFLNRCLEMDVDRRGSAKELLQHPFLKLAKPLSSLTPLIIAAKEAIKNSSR

FAKLAARLYRKALARQLGVAA [MMI-0300] was tested, and the “% activity” value (Abl(H396P)(h)) was 101%, the “% activity” value (CK1γ3(h)) was 125% and the “% activity” value (PAK3(h)) was 140%. For the same sequence, the “% activity” value (Aurora-A(h)) was 92%.
YARAAARQARAKALARQLGVAA [MMI-0100] was tested, and the “protein level of fibronectin” value [1] was “decreases”, the “collagen levels in the lung (Masson's blue trichrome), dose-response” value [2] was “a decrease in collagen levels” and the “collagen accumulation in the lungs (Masson's Trichrome staining)” value ([2]; intraperitoneally) was “reduced collagen accumulation”. The “development of fibrotic loci formation (H&E staining)” value ([2]; intraperitoneally) was “significantly reduced”, the “total collagen deposition (from hydroxyproline) vs bleomycin control” value ([2]; nebulized) was “significantly decreased” and the “total collagen deposition (from hydroxyproline) vs bleomycin control” value ([2]; systemic (IP)) was “significantly decreased”. For the same sequence, the “collagen accumulation in the lungs (Masson's Trichrome staining)” value ([2]; via nebulization) was “reduced collagen accumulation”, the “development of fibrotic loci formation (H&E staining)” value ([2]; via nebulization) was “significantly reduced” and the “invasive capacity of IPF fibroblasts” value [3] was “able to inhibit”. For the same sequence, the “protein level of α-smooth muscle actin (α-SMA)” value [4] was “decreases”, the “phospho-Thr^334-MAPKAPK2 staining” value ([5]; intraperitoneal 50 μg/kg daily) was “decreased” and the “phospho-Thr^334-MAPKAPK2 staining” value ([5]; nebulized 50 μg/kg daily) was “decreased”.
“HRRIKAWLKKIKALARQLGVAA (Mammal) [MMI-0500]” was tested, and the “% activity” value (Abl(H396P)(h)) was 51% and the “% activity” value (Aurora-A(h)) was 110%.
“YARAAARQARAKALNRQLGVA (Mammal) [MMI-0200]” was tested, and the “% activity” value (CK1γ3(h)) was 96%, the “% activity” value (PAK3(h)) was 50% and the “protein level of fibronectin” value [1] was “no changes”. The “collagen levels in the lung (Masson's blue trichrome), dose-response” value [2] was “did not reduce, but rather increased” and the “protein level of α-smooth muscle actin (α-SMA)” value [4] was “no changes”.
